Values of other authors, collected in paper PMC3341666 (Biochemistry, 2009).

Tests used:
[1] = target: Prostate-Specific Antigen (PSA) (Homo sapiens, UniProt P07288); conditions: introduction statement, no reference given
Bovine α-Chymotrypsin = Bovine α-Chymotrypsin (Bos taurus, UniProt P00766); conditions: previous study

Prostate-Specific Antigen (PSA), sequence (P07288 25-261): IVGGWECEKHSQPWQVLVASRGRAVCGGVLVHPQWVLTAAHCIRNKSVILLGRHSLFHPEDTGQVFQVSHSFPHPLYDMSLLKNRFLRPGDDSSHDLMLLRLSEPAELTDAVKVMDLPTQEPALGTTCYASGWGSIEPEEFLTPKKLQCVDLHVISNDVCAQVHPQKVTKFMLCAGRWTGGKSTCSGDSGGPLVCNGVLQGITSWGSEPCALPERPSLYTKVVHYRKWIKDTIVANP

O=S(=O)(F)Cc1ccccc1 [PMSF, phenylmethylsulphonyl fluoride]
PSA inhibition (in words) [1]: poor PSA inhibitors

Cc1ccc(S(=O)(=O)N[C@@H](Cc2ccccc2)C(=O)CCl)cc1 [TPCK, tosyl-phenylalanine chloromethylketone]
PSA inhibition (in words) [1]: poor PSA inhibitors

Z-SSKL(boro)L
fold higher Ki for chymotrypsin (vs PSA) (Bovine α-Chymotrypsin): ~ 65 fold
